Measurements taken from patent US20090042963A1 (priority 2005, published 2009).

System: Pyricularia oryzae
Type: cell-based
Settings: single active compound, Conc. 1 ppm; microtiter plate, malt-based medium, 18° C., measured at 405 nm on day 7 after inoculation

Row | SMILES | Observed effect (%)
1 | Fc1ccc(C2(Cn3cncn3)OC2c2ccccc2Cl)cc1 (centres unmarked) [Epoxiconazole, epoxiconazole] | 0%
2 | CC(C)(C)C(O)(CCc1ccc(Cl)cc1)Cn1cncn1 (centres unmarked) [Tebuconazole, tebuconazole] | 2%
